IC50 and Ratio IC50 data for 9 molecules are collected here from ChEMBL document CHEMBL3751727, “One-pot green synthesis of 1,3,5-triarylpentane-1,5-dione and triarylmethane derivatives as a new class of tyrosinase inhibitors” (Bioorg Med Chem Lett, 2016).

One assay addresses T1, Tyrosinase (Agaricus bisporus, UniProt O42713).
T1 sequence (O42713 whole entry): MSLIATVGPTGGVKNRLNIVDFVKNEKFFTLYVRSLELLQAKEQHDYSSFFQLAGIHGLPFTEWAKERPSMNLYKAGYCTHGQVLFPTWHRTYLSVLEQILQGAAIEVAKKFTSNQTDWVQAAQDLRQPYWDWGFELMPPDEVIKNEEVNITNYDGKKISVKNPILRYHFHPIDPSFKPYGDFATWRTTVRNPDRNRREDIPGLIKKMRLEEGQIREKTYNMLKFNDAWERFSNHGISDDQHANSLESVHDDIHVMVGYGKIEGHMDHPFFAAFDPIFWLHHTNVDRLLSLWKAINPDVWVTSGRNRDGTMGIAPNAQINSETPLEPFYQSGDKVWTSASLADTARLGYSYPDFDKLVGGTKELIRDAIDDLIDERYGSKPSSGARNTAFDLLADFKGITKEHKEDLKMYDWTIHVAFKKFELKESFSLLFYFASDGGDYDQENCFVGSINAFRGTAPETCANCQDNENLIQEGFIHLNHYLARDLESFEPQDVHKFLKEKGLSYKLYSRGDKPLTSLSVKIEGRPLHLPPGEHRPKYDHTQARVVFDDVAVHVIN

Assay [1] has as its target T2, Tyrosinase (Agaricus bisporus) (UniProt O42713).
T2 sequence (whole entry): T1 sequence (O42713 whole entry)
Put plainly: Ratio of kojic acid IC50 to compound IC50 for mushroom tyrosinase.

Bounds are passed on as bounds.

At Tyrosinase, `O=C(CC(CC(=O)c1ccccc1O)c1ccc(O)cc1O)c1ccccc1O` had an IC50 of 1670 nM.

`O=Cc1ccc(O)cc1O`: on Tyrosinase, the IC50 is greater than 200000 nM. The same measure, in the same setting: then `CC(=O)c1c(O)cccc1O`, with greater than 300000 nM; and `O=c1cc(-c2ccc(O)cc2O)oc2cccc(O)c12`, with 2720 nM; and `CC(=O)c1ccccc1O`, with greater than 300000 nM. The same measure, in the same setting: then `CC(=O)c1c(O)ccc(C(c2ccc(O)cc2O)c2ccc(O)c(C(C)=O)c2O)c1O`, with 16200 nM; and `O=C1CC(c2ccc(O)cc2O)Oc2cccc(O)c21` (stereo unspecified), with 1960 nM. On to `O=C(/C=C/c1ccc(O)cc1O)c1ccccc1O`, for which, in assay [1], the Ratio IC50 stood at 30. The molecule further showed a concentration for half-maximal inhibition (IC50) at Tyrosinase of 29 nM. For `O=C1CC(c2ccc(O)cc2O)Oc2ccccc21` (stereo unspecified) the same measures were 30 and 970 nM.

The term IC50 denotes the concentration at which inhibition is half-maximal.
